According to publication PMC9661478 (Journal of Medicinal Chemistry, 2022):

How the values were obtained:
p-ERK = experiment: pERK1/2 immunoassay; details: 40 mg/kg ip daily x3
cleaved caspase 3 = experiment: Cleaved caspase-3 immunoassay; details: 40 mg/kg ip daily x3
LS513 cells = experiment: LS513 proliferation assay; format: cell-based; details: KRAS^G12D mutation
GP2D cells = experiment: GP2D proliferation assay; format: cell-based; details: KRAS^G12D mutation
[1] = Body weight changes in the NCI-H358 efficacy study; details: both dose groups; less pronounced for the low dose group
[2] = target: GDP-KRAS^G12C::SOS1 interaction (Homo sapiens, UniProt P01116, G12C); experiment: biochemical
Chain of GDP-KRAS^G12C::SOS1 interaction (P01116 1-169 isoform P01116-2 G12C limits assumed): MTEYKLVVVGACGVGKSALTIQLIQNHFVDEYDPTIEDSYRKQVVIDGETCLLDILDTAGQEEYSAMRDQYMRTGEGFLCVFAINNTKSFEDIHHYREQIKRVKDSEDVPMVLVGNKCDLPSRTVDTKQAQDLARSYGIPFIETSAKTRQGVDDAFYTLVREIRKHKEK

Row | IC50 [2] | SMILES | reduction of p-ERK levels (p-ERK; 2 h post last dose) | reduction of p-ERK levels (p-ERK; 6 h post last dose) | induction of apoptosis (cleaved caspase 3) detectable in treated samples (cleaved caspase 3; 2 h post-dose on day 3) | induction of apoptosis (cleaved caspase 3) detectable in treated samples (cleaved caspase 3; 6 h post-dose on day 3) | concentration above which antiproliferative effect was observed, LS513 cells (LS513 cells) | concentration above which antiproliferative effect was observed, GP2D cells (GP2D cells) | body weight change compared to vehicle [1]
1 |  | C=CC(=O)N1CCN(c2cc(-c3noc([C@@]4(C)CCCc5sc(N)c(C#N)c54)n3)nc(N3CCN(C)C[C@@H]3C)c2)CC1 [BI-0474, (4S)-2-Amino-4-(3-{6-[(2S)-2,4-dimethylpiperazin-1-yl]-4-[4-(prop-2-enoyl)piperazin-1-yl]pyridin-2-yl}-1,2,4-oxadiazol-5-yl)-4-methyl-4,5,6,7-tetrahydro-1-benzothiophene-3-carbonitrile] | five-fold | six-fold | one out of five | all five | above 4 μM | above 4 μM | some body weight loss
2 | ~3 µM | C=CC(=O)N1CCN(c2cccc(-c3noc([C@@]4(C)CCCc5sc(N)c(C#N)c54)n3)c2)CC1 [Compound 22, (4S)-2-Amino-4-methyl-4-(3-{3-[4-(prop-2-enoyl)piperazin-1-yl]phenyl}-1,2,4-oxadiazol-5-yl)-4,5,6,7-tetrahydro-1-benzothiophene-3-carbonitrile] |  |  |  |  |  |  | 
